Target: T1, ChrHI (ChrH with ChrI) (Chryseobacterium sp. JM1, UniProt A0A086ASD2)
T1 construct: gene IW22_14845
Assay: MALDI-TOF MS of in vitro reaction products after LysC digestion
Assay type: biochemical
Settings: precursor peptide ChrA as co-substrate, DTT, aerobic, iron-containing enzyme; methyl donor; also run with 13CD3-SAM (labelled compound)

T1 sequence (A0A086ASD2 entry or part of it): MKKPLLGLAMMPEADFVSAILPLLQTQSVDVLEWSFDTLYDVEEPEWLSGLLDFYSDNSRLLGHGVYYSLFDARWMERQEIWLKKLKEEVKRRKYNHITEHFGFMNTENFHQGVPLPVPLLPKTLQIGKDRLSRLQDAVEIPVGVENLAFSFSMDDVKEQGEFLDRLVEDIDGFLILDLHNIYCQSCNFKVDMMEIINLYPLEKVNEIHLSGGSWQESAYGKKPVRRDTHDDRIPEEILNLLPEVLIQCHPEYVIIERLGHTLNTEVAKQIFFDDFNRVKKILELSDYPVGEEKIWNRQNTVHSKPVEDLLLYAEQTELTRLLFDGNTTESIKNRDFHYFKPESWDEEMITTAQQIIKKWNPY

C[S+](CC[C@H](N)C(=O)O)C[C@H]1O[C@@H](n2cnc3c(N)ncnc32)[C@H](O)[C@@H]1O (stereo partly shown) [SAM, S-adenosylmethionine]
MALDI-TOF MS of in vitro reaction products after LysC digestion: SAM is the methyl donor in the posttranslational modification of ChrA by ChrHI

From paper doi:10.1101/2023.02.06.527370, “A remarkable transformation catalyzed by a domain-of-unknown-function 692 during the biosynthesis of a new RiPP natural product” (bioRxiv, 2023)
